Measurements published in patent US20250026765A1, “SPIROHETEROCYCLE DERIVATIVE HAVING SEROTONIN RECEPTOR BINDING ACTIVITY” (Shionogi & Co., Ltd., priority 2021, published 2025).
Like-named read-outs stand apart in the source and are kept apart here.

Legend:
[1] = molecular target: human recombinant 5-HT2C receptor (Homo sapiens (Human), UniProt P28335); test: 5-HT2C receptor binding inhibition test ([3H]-Mesulergine); conditions: Jump-In HEK cell membrane, 37° C. 2 hours
Method: Test Example 2: 5-HT2C Receptor Binding Inhibition Test
(§1) (Each Experimental Condition)
Cell membrane: 0.5 μg of Jump-In HEK cell membrane (expressing human recombinant 5-HT2C receptor) per well
(§2) Assay buffer: Tris-HCl 50 mmol/L (pH 7.4) containing NaCl 120 mmol/L, MgCl2·6H2O 1 mmol/L, KCl 5 mmol/L, 0.1% BSA and CaCl2 2 mmol/L
Radioactive ligand: [^3H]-Mesulergine with a final concentration of around Kd value calculated by the following method
Non-specific ligand: Serotonin HCl with a final concentration of […]
(§3) The Kd value is calculated when the lot of cell membrane is changed. In advance, 0.5 μL of a 1 mmol/L compound for non-specific binding calculation dissolved in DMSO or DMSO is dispensed into a microplate, and the cell membrane is diluted with an Assay buffer. The radioactive ligand solution is serially diluted and the count is confirmed with a liquid scintillator. Assay buffer containing diluted cell membrane is dispensed into a microplate at 50 μL/well. Then, the radioactive ligand solution is dispensed into a microplate at 50 μL/well, and the plate is sealed. It is allowed to stand at 37° C. for 2 hours. During this period, 50 mmol/L Tris-HCl (pH 7.4) is dispensed into a GF/B UniFilter plate at 50 μL/well and allowed to stand at 4° C. for 1 hour or longer. After that, filtration is performed with Cell harvester (PerkinElmer). The radioactive ligand solution is dispensed into an empty well of the GF/B UniFilter plate at 10 μL/well. After the GF/B UniFilter plate is dried at room temperature, MicroScinti 20 is dispensed into the GF/B UniFilter plate at 50 μL/well to seal the plate. The GF/B UniFilter plate is allowed to stand overnight at room temperature. The radioactivity of [^3H]-Mesulergine bound to the 5-HT2C receptor is measured using Microbeta2 (PerkinElmer) at a measurement time of 1 min/well. The Saturation curve is drawn from the measured value, and the Kd value is calculated from the slope of the Scatchard Plot.
(§4) (Binding Test of the Compound According to the Present Invention)
In advance, 0.5 μL of the compound solution dissolved in DMSO is dispensed into a microplate, and the cell membrane and the hot ligand are diluted with Assay buffer, respectively. Then, the Assay buffer containing the diluted cell membrane is dispensed into a microplate at 50 μL/well. Then, the radioactive ligand solution is dispensed into a microplate at 50 μL/well, and the plate is sealed. Then, it is allowed to stand at 37° C. for 2 hours. During this period, 50 mmol/L Tris-HCl (pH 7.4) is dispensed into a GF/B UniFilter plate at 50 μL/well and allowed to stand at 4° C. for 1 hour or longer. After that, filtration is performed with Cell harvester (PerkinElmer). After the GF/B UniFilter plate is dried at room temperature, MicroScinti 20 is dispensed into the GF/B UniFilter plate at 50 μL/well, and the plate is sealed. The GF/B UniFilter plate is allowed to stand overnight at room temperature. The radioactivity of [^3H]-Mesulergine bound to the 5-HT2C receptor is measured using Microbeta2 (PerkinElmer) at a measurement time of 1 min/well. The non-specific binding is calculated from the radioactivity of […] in the presence of 500 μmol/L Serotonin HCl which is the unlabeled ligand, and the total binding is calculated from the radioactivity of [^3H]-Mesulergine in the absence of the compound according to the present invention (Vehicle). Finally, the Ki value is calculated from the dose-response curve.
(§5) (The binding activity of the compound according to the present invention is calculated from the following binding inhibition rate (%).)
(§6) [formula] • a; mean cpm of non-specific binding • b; average cpm of total binding • c; cpm in the presence of the test compound

[2] = molecular target: human recombinant 5-HT2A receptor (Homo sapiens (Human), UniProt P28223); test: 5-HT2A receptor binding inhibition test ([3H]-Ketanserin); conditions: Jump-In HEK cell membrane, 25° C. 1.5 hours
Method: Test Example 1: 5-HT2A Receptor Binding Inhibition Test
as §1
Cell membrane: 15 μg of Jump-In HEK cell membrane (expressing human recombinant 5-HT2A receptor) per well
as §2
Radioactive ligand: [^3H]-Ketanserin with a final concentration of around Kd value calculated by the following method
Non-specific ligand: Serotonin HCl with a final concentration of 500 μmol/L
as §3, with “at room temperature (25° C.)” for “at 37° C.”, “for 1.5” for “for 2”, “of [^3H]-Ketanserin” for “of [^3H]-Mesulergine”, “the 5-HT2A” for “the 5-HT2C”
as §4
In advance, 0.5 μL of the compound solution dissolved in DMSO is dispensed into a microplate, and the cell membrane and the hot ligand are diluted with Assay buffer, respectively. Then, the Assay buffer containing the diluted cell membrane is dispensed into a microplate at 50 μL/well. Then, the radioactive ligand solution is dispensed into a microplate at 50 μL/well, and the plate is sealed. Then, it is allowed to stand at room temperature (25° C.) for 1.5 hours. During this period, 50 mmol/L Tris-HCl (pH 7.4) is dispensed into a GF/B UniFilter plate at 50 μL/well and allowed to stand at 4° C. for 1 hour or longer. After that, filtration is performed with Cell harvester (PerkinElmer). After the GF/B UniFilter plate is dried at room temperature, MicroScinti 20 is dispensed into the GF/B UniFilter plate at 50 μL/well to seal the plate. The GF/B UniFilter plate is allowed to stand overnight at room temperature. The radioactivity of [^3H]-Ketanserin bound to the 5-HT2A receptor is measured using Microbeta2 (PerkinElmer) at a measurement time of 1 min/well. The non-specific binding is calculated from the radioactivity of [^3H]-Ketanserin in the presence of 500 μmol/L Serotonin HCl which is the unlabeled ligand, and the total binding is calculated from the radioactivity of [^3H]-Ketanserin in the absence of the compound according to the present invention (Vehicle). Finally, the Ki value is calculated from the dose-response curve.
as §5, §6

[3] = read-out: human serotonin 5-HT2C receptor binding activity Ki
[4] = read-out: human serotonin 5-HT2A receptor binding activity Ki

human recombinant 5-HT2A receptor, sequence (P28223 whole entry): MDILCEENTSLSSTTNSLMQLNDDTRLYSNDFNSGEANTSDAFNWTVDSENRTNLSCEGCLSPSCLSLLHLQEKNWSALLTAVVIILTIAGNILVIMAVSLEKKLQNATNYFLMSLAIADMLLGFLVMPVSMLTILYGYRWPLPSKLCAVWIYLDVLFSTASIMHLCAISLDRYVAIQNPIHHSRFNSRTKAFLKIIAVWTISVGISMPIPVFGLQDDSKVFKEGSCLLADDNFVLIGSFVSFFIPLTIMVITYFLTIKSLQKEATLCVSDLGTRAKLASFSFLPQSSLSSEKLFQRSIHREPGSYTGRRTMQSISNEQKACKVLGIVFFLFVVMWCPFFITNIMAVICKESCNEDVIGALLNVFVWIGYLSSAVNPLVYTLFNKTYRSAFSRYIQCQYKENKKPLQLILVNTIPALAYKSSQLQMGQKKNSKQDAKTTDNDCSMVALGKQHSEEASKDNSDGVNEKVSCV
human recombinant 5-HT2C receptor, sequence (P28335 33-458): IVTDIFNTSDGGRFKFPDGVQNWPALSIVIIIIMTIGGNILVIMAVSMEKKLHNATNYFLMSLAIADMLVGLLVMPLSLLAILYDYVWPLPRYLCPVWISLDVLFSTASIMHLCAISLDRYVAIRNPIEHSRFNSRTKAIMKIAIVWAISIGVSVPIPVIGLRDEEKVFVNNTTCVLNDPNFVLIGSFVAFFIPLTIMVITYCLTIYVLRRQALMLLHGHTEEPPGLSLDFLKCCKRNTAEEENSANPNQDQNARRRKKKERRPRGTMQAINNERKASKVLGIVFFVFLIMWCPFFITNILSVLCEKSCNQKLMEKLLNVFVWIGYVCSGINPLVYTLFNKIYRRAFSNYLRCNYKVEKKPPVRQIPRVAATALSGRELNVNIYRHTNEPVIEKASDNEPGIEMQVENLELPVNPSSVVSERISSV

Row | SMILES | Ki [1, 3] [nM] | Ki [2, 4] [nM] | Ki ([1]; read-out: h-5-HT2C Ki) [nM] | Ki ([2]; read-out: h-5-HT2A Ki) [nM]
1 | Cc1nc(CN(Cc2ccc(OCC(F)(F)C(F)F)cc2)C2=NOC3(CCN(C)CC3)N2)co1 [Compound I-064] | – | – | < 10 | < 10
2 | Cc1nc(CN(Cc2ccc(OCC(C)(F)F)cc2)C2=NOC3(CCN(C)CC3)N2)co1 [Compound I-065] | – | – | < 10 | < 10
3 | Cc1nc(CN(Cc2ccc(OCC(F)F)cc2)C2=NOC3(CCN(C)CC3)N2)co1 [Compound I-066] | – | – | < 10 | < 10
4 | CCc1nc(CN(Cc2ccc(OCC(C)C)cc2)C2=NOC3(CCN(C)CC3)N2)co1 [Compound I-068] | – | – | < 10 | < 10
5 | Cc1nc(CN(Cc2cccs2)C2=NOC3(CCN(C)CC3)N2)co1 [Compound I-069] | – | – | < 10 | 10 to 100
6 | Cc1cc(CN(Cc2ccc(OCC(C)C)cc2)C2=NOC3(CCN(C)CC3)N2)co1 [Compound I-070] | – | – | < 10 | < 10
7 | CC(C)COc1ccc(CN(Cc2cnn(C)n2)C2=NOC3(CCN(C)CC3)N2)cc1 [Compound I-072] | – | – | < 10 | < 10
8 | Cc1nc(CN(Cc2ccsc2)C2=NOC3(CCN(C)CC3)N2)co1 [Compound I-073] | – | – | < 10 | 10 to 100
9 | Cc1cc(CN(Cc2ccc(OCC(C)C)cc2)C2=NOC3(CCN(C)CC3)N2)no1 [Compound I-075] | – | – | 100 to 500 | < 10
10 | Cc1cc(CN(Cc2ccc(OCC(C)C)cc2)C2=NOC3(CCN(C)CC3)N2)on1 [Compound I-076] | – | – | 100 to 500 | 10 to 100
11 | CCCCc1ccc(CN(Cc2coc(C)n2)C2=NOC3(CCN(C)CC3)N2)cc1 [Compound I-077] | – | – | < 10 | < 10
12 | Cc1ccc(CN(Cc2ccc(OCC(C)C)cc2)C2=NOC3(CCNCC3)N2)cn1 [Compound I-078] | – | – | 100 to 500 | < 10
13 | Cc1nc(CN(Cc2ccc(OCC3CC3)cc2)C2=NOC3(CCN(C)CC3)N2)co1 [Compound I-079] | – | – | < 10 | < 10
14 | Cc1ccc(CN(Cc2ccc(OCC(C)C)cc2)C2=NOC3(CCN(C)CC3)N2)cn1 [Compound I-081] | – | – | 100 to 500 | < 10
15 | Cc1nc(CN(Cc2ccc(OCC(F)(F)C(F)(F)F)cc2)C2=NOC3(CCN(C)CC3)N2)co1 [Compound I-082] | – | – | < 10 | < 10
16 | Cc1nc(CN(Cc2ccc(OCC3CCC3)cc2)C2=NOC3(CCN(C)CC3)N2)co1 [Compound I-083] | – | – | < 10 | < 10

Row | SMILES | Ki [1, 3] [nM] | Ki [2, 4] [nM] | Ki ([1]; read-out: h-5-HT2C Ki) [nM] | Ki ([2]; read-out: h-5-HT2A Ki) [nM]
17 | Cc1nc(CN(Cc2ccc(OCC3CC(F)(F)C3)cc2)C2=NOC3(CCN(C)CC3)N2)co1 [Compound I-084] | – | – | < 10 | < 10
18 | CN1CCC2(CC1)NC(N(Cc1ccc(OCC(F)(F)F)cc1)Cc1coc(C3CC3)n1)=NO2 [Compound I-086] | – | – | < 10 | < 10
19 | COc1ccc2oc(CN(Cc3coc(C)n3)C3=NOC4(CCN(C)CC4)N3)nc2c1 [Compound I-088] | – | – | 10 to 100 | 10 to 100
20 | Cc1nc(CN(Cc2cn3ccccc3n2)C2=NOC3(CCN(C)CC3)N2)co1 [Compound I-091] | – | – | 100 to 500 | 10 to 100
21 | CCCCOc1ccc(CN(Cc2coc(C)n2)C2=NOC3(CCN(C)CC3)N2)c(Br)c1 [Compound I-092] | – | – | < 10 | < 10
22 | Cc1nc(CN(Cc2ccc3c(c2)nnn3C)C2=NOC3(CCN(C)CC3)N2)co1 [Compound I-093] | – | – | 100 to 500 | 100 to 500
23 | Cc1nc(CN(Cc2nc3ccccc3o2)C2=NOC3(CCN(C)CC3)N2)co1 [Compound I-094] | – | – | 10 to 100 | 10 to 100
24 | Cc1nc(CN(Cc2cnc3ccccc3c2)C2=NOC3(CCN(C)CC3)N2)co1 [Compound I-095] | – | – | 100 to 500 | 10 to 100
25 | Cc1nc(CN(Cc2ccc3ncccc3c2)C2=NOC3(CCN(C)CC3)N2)co1 [Compound I-096] | – | – | 10 to 100 | < 10
26 | Cc1nc(CN(Cc2ccc3ccccc3c2)C2=NOC3(CCN(C)CC3)N2)co1 [Compound I-097] | – | – | < 10 | < 10
27 | Cc1nc(CN(Cc2nc3ccccc3s2)C2=NOC3(CCN(C)CC3)N2)co1 [Compound I-098] | – | – | 10 to 100 | < 10
28 | CC(C)COc1ccc(CN(Cc2ccn(C3CC3)n2)C2=NOC3(CCN(C)CC3)N2)cc1 [Compound I-100] | – | – | 10 to 100 | < 10
29 | Cc1ccc2cc(CN(Cc3coc(C)n3)C3=NOC4(CCN(C)CC4)N3)sc2c1 [Compound I-101] | – | – | < 10 | < 10
30 | Cc1nc(CN(Cc2cc3ccc(Br)cc3s2)C2=NOC3(CCN(C)CC3)N2)co1 [Compound I-102] | – | – | < 10 | < 10
31 | CN1CCC2(CC1)NC(N(Cc1cnn(C)n1)Cc1ccc(OCC(F)(F)C(F)(F)F)cc1F)=NO2 [Compound I-103] | – | – | < 10 | < 10

Second part, led by results:

Row | Ki [1, 3] [nM] | Ki [2, 4] [nM] | SMILES | Ki ([1]; read-out: h-5-HT2C Ki) [nM] | Ki ([2]; read-out: h-5-HT2A Ki) [nM]
32 | 0.787 | 1.11 | CCCc1ccc(CN(Cc2coc(C)n2)C2=NOC3(CCN(C)CC3)N2)cc1 [Compound I-087] | – | –
33 | 5.46 | 1.49 | Cc1nc(CN(Cc2nc3cc(Cl)ccc3o2)C2=NOC3(CCN(C)CC3)N2)co1 [Compound I-089] | – | –
34 | 3.08 | 0.96 | Cc1nc(CN(Cc2cc3ccccc3o2)C2=NOC3(CCN(C)CC3)N2)co1 [Compound I-099] | – | –
